Key:
Type in all cases: cell-based
Septoria tritici = test: Microtest, activity against leaf blotch on wheat; details: 405 nm 9 days after inoculation, comparative example
Phytophthora infestans = details: 405 nm 7 days after inoculation, comparative example
Leptosphaeria nodorum = test: Microtest, activity against wheat leaf spots; details: 405 nm 9 days after inoculation, comparative example

Row | SMILES | Growth (%) at 8 ppm (Septoria tritici) [%] | Growth (%) at 31 ppm (Phytophthora infestans) [%] | Growth (%) at 2 ppm (Leptosphaeria nodorum) [%]
1 | CC1(C)N=C(c2cnc3ccccc3c2)c2ccccc2C1(C)C | 74 |  | 
2 | CC1(C)N=C(c2cnc3ccccc3c2)c2[nH]ccc2C1(C)C | 53 |  | 
3 | CC1(C)Cc2ccccc2C(c2cnc3ccccc3c2)=N1 [drawing 139] |  | 33 | 
4 | CC1(C)Cc2cc[nH]c2C(c2cnc3ccccc3c2)=N1 [drawing 140] |  | 17 | 
5 | CC1(C)Cc2ccccc2C(c2cnc3ccccc3c2)=N1 [drawing 141] |  |  | 83
6 | CC1(C)Cc2cc[nH]c2C(c2cnc3ccccc3c2)=N1 [drawing 142] |  |  | 65

Reference: patent publication US20180086714A1 (priority 2015, published 2018)
